{"source": "paper PMC11124822", "about": "“Discovery and Anticancer Screening of Novel Oxindole-Based Derivative Bearing Pyridyl Group as Potent and Selective Dual FLT3/CDK2 Kinase Inhibitor” (Pharmaceuticals, 2024)", "key": {"A549/ATCC": {"test_system": "A549/ATCC", "assay": "NCI-60 antiproliferative screen (SRB)", "format": "cell-based, human", "details": "48 h"}, "OVCAR-3": {"test_system": "OVCAR-3", "assay": "NCI-60 antiproliferative screen (SRB)", "format": "cell-based, human", "details": "48 h"}, "A498": {"test_system": "A498", "assay": "NCI-60 antiproliferative screen (SRB)", "format": "cell-based, human", "details": "48 h"}, "SF-539": {"test_system": "SF-539", "assay": "NCI-60 antiproliferative screen (SRB)", "format": "cell-based, human", "details": "48 h"}, "BT-549": {"test_system": "BT-549", "assay": "NCI-60 antiproliferative screen (SRB)", "format": "cell-based, human", "details": "48 h"}, "HT29": {"test_system": "HT29", "assay": "NCI-60 antiproliferative screen (SRB)", "format": "cell-based, human", "details": "48 h"}, "SK-MEL-5": {"test_system": "SK-MEL-5", "assay": "NCI-60 antiproliferative screen (SRB)", "format": "cell-based, human"}, "NCI-H322M": {"test_system": "NCI-H322M", "assay": "NCI-60 antiproliferative screen (SRB)", "format": "cell-based, human", "details": "five-dose, 48 h, NCI-H322M"}, "MDA-MB-435": {"test_system": "MDA-MB-435", "assay": "NCI-60 antiproliferative screen (SRB)", "format": "cell-based, human", "details": "48 h"}, "[1]": {"test_system": "NCI-60 human cancer cell lines", "assay": "NCI-60 screen, full panel summary", "format": "cell-based", "protocol": "In a comprehensive test, compounds were assayed at a single dose concentration (10^−5 M) in the full panel of NCI-60 cancer cell lines."}, "UACC-257": {"test_system": "UACC-257", "assay": "NCI-60 antiproliferative screen (SRB)", "format": "cell-based, human", "details": "48 h"}, "LOX IMVI": {"test_system": "LOX IMVI", "assay": "NCI-60 antiproliferative screen (SRB)", "format": "cell-based, human", "details": "48 h"}}, "note": "Read-outs that look alike come from different tables or passages of the source."}
{"smiles": "O=C1Nc2cc(Cl)ccc2C1=Cc1ccc(OCc2cccnc2)cc1", "note": "(mixture of isomers) [Compound 5l, (E/Z)-6-Chloro-3-[4-(pyridin-3-ylmethoxy)benzylidene] indolin-2-one]", "values": [{"measurement": "inhibition at 10 µM", "setting": "A549/ATCC; Homo sapiens, 10 µM single dose, A549/ATCC (NSCLC), read-out: Growth inhibition (%)", "value": 58.8, "unit": "%"}, {"measurement": "GI50", "setting": "A549/ATCC; Homo sapiens, five-dose, A549/ATCC", "value": 15.5, "unit": "µM"}, {"measurement": "TGI", "setting": "A549/ATCC; five-dose, A549/ATCC", "value": ">100", "unit": "µM"}, {"measurement": "inhibition at 10 µM", "setting": "OVCAR-3; Homo sapiens, 10 µM single dose, OVCAR-3 (Ovarian), read-out: Growth inhibition (%)", "value": 61.8, "unit": "%"}, {"measurement": "GI50", "setting": "OVCAR-3; Homo sapiens, five-dose, OVCAR-3", "value": 57.7, "unit": "µM"}, {"measurement": "CC50", "setting": "OVCAR-3; Homo sapiens, five-dose, OVCAR-3, read-out: LC50 (the source's name)", "value": "> 100", "unit": "µM"}, {"measurement": "TGI", "setting": "OVCAR-3; five-dose, OVCAR-3", "value": 2.26, "unit": "µM"}, {"measurement": "inhibition at 10 µM", "setting": "A498; Homo sapiens, 10 µM single dose, A498 (Renal), read-out: Growth inhibition (%)", "value": 8.9, "unit": "%"}, {"measurement": "GI50", "setting": "A498; Homo sapiens, five-dose, A498", "value": 18, "unit": "µM"}, {"measurement": "CC50", "setting": "A498; Homo sapiens, five-dose, A498, read-out: LC50 (the source's name)", "value": "> 100", "unit": "µM"}, {"measurement": "TGI", "setting": "A498; five-dose, A498", "value": 85.20, "unit": "µM"}, {"measurement": "inhibition at 10 µM", "setting": "SF-539; Homo sapiens, 10 µM single dose, SF-539 (CNS), read-out: Growth inhibition (%)", "value": 59.3, "unit": "%"}, {"measurement": "GI50", "setting": "SF-539; Homo sapiens, five-dose, SF-539", "value": 13.6, "unit": "µM"}, {"measurement": "TGI", "setting": "SF-539; five-dose, SF-539", "value": ">100", "unit": "µM"}, {"measurement": "inhibition at 10 µM", "setting": "BT-549; Homo sapiens, 10 µM single dose, BT-549 (Breast), read-out: Growth inhibition (%)", "value": 95.7, "unit": "%"}, {"measurement": "GI50", "setting": "BT-549; Homo sapiens, five-dose, BT-549", "value": 10.4, "unit": "µM"}, {"measurement": "CC50", "setting": "BT-549; Homo sapiens, five-dose, BT-549, read-out: LC50 (the source's name)", "value": "> 100", "unit": "µM"}, {"measurement": "TGI", "setting": "BT-549; five-dose, BT-549", "value": 46.30, "unit": "µM"}, {"measurement": "inhibition at 10 µM", "setting": "HT29; Homo sapiens, HT-29, 10 µM single dose, HT29 (Colon), read-out: Growth inhibition (%)", "value": 90.3, "unit": "%"}, {"measurement": "GI50", "setting": "HT29; Homo sapiens, HT-29, five-dose, HT29", "value": 6.45, "unit": "µM"}, {"measurement": "CC50", "setting": "HT29; Homo sapiens, HT-29, five-dose, HT29, read-out: LC50 (the source's name)", "value": "> 100", "unit": "µM"}, {"measurement": "TGI", "setting": "HT29; five-dose, HT29", "value": 37.80, "unit": "µM"}, {"measurement": "CC50", "setting": "SK-MEL-5; Homo sapiens, SK-MEL-5, 48 h, five-dose, SK-MEL-5, read-out: LC50 (the source's name)", "value": 65.6, "unit": "µM"}, {"measurement": "inhibition at 10 µM", "setting": "SK-MEL-5; Homo sapiens, 10 µM single dose, 48 h, SK-MEL-5 (Melanoma), read-out: Growth inhibition (%)", "value": 153, "unit": "%"}, {"measurement": "GI50", "setting": "SK-MEL-5; Homo sapiens, five-dose, 48 h, SK-MEL-5", "value": 3.46, "unit": "µM"}, {"measurement": "CC50", "setting": "SK-MEL-5; five-dose, 48 h, SK-MEL-5, read-out: LC50 (the source's name)", "value": 71.5, "unit": "µM"}, {"measurement": "GI50", "setting": "NCI-H322M; Homo sapiens", "value": 23.2, "unit": "µM"}, {"measurement": "TGI", "setting": "NCI-H322M", "value": ">100", "unit": "µM"}, {"measurement": "inhibition at 10 µM", "setting": "MDA-MB-435; Homo sapiens, 10 µM single dose, MDA-MB-435 (Melanoma), read-out: Growth inhibition (%)", "value": 121, "unit": "%"}, {"measurement": "GI50", "setting": "MDA-MB-435; Homo sapiens, five-dose, MDA-MB-435", "value": 4.44, "unit": "µM"}, {"measurement": "TGI", "setting": "MDA-MB-435; five-dose, MDA-MB-435", "value": 76.90, "unit": "µM"}, {"measurement": "Positive Cytostatic Effect (cell lines with percent growth from 0 to 50 / total number of cell lines)", "setting": "[1]; 10 µM single dose", "value": "44/56"}, {"measurement": "Positive Cytotoxic Effect (cell lines with percent growth of <0 / total number of cell lines)", "setting": "[1]; 10 µM single dose", "value": "4/56"}, {"measurement": "Sensitive/Total Cell Lines", "setting": "[1]; 10 µM single dose", "value": "48/56"}, {"measurement": "The Most Sensitive Cell Line", "setting": "[1]; 10 µM single dose", "value": "SK-MEL-5"}, {"measurement": "number of cell lines with cytostatic effects", "setting": "[1]; 10 µM single dose", "value": 44}, {"measurement": "number of cell lines with cytotoxic effects", "setting": "[1]; 10 µM single dose", "value": 4}, {"measurement": "Mean Growth Percent", "setting": "[1]; 10 µM single dose, all NCI-60 cell lines", "value": 72.81}, {"measurement": "inhibition at 10 µM", "setting": "[1]; Homo sapiens, 10 µM single dose, read-out: Range of Growth Inhibition on All Cells", "value": "8.89 to 153", "unit": "%"}, {"measurement": "GI50", "setting": "[1]; Homo sapiens, five-dose, almost all cell lines, read-out: GI50 values, range over evaluated human cancer types", "value": "2.7 to 77.1", "unit": "µM"}, {"measurement": "CC50", "setting": "[1]; Homo sapiens, five-dose, excluding LOX IMVI, SK-MEL-5, SK-MEL-28, read-out: LC50 for most of the examined cancer cells", "value": "> 100", "unit": "µM"}, {"measurement": "GI50", "setting": "[1]; Homo sapiens, five-dose, full panel, read-out: Full panel MG-MID (GI50)", "value": 12.2, "unit": "µM"}, {"measurement": "TGI against the left-over cancer cells", "setting": "[1]; five-dose", "value": "> 100", "unit": "µM"}, {"measurement": "inhibition at 10 µM", "setting": "UACC-257; Homo sapiens, 10 µM single dose, UACC-257 (Melanoma), read-out: Growth inhibition (%)", "value": 76.7, "unit": "%"}, {"measurement": "GI50", "setting": "UACC-257; Homo sapiens, five-dose, UACC-257", "value": 8.06, "unit": "µM"}, {"measurement": "CC50", "setting": "UACC-257; Homo sapiens, five-dose, UACC-257, read-out: LC50 (the source's name)", "value": "> 100", "unit": "µM"}, {"measurement": "TGI", "setting": "UACC-257; five-dose, UACC-257", "value": 43.80, "unit": "µM"}, {"measurement": "CC50", "setting": "LOX IMVI; Homo sapiens, LOX IMVI, five-dose, LOX IMVI, read-out: LC50 (the source's name)", "value": 96.9, "unit": "µM"}, {"measurement": "inhibition at 10 µM", "setting": "LOX IMVI; Homo sapiens, 10 µM single dose, LOX IMVI (Melanoma), read-out: Growth inhibition (%)", "value": 91, "unit": "%"}, {"measurement": "GI50", "setting": "LOX IMVI; Homo sapiens, five-dose, LOX IMVI", "value": 4.7, "unit": "µM"}, {"measurement": "TGI", "setting": "LOX IMVI; five-dose, LOX IMVI", "value": 24.80, "unit": "µM"}]}
